In patent publication US20060115538A1, “Calcium lactate and whey permeate for lowering the triglyceride level” (priority 2002, published 2006):

Experiments:
Format in all cases: in vivo
WOK.W rat [1] = assay: Feeding trial in male WOK.W rats: plasma glucose; conditions: 16 weeks old, after 12 weeks supplementation via drinking water, mean ± SEM, pathological threshold >8.4 mmol/l
Excerpt: (§1) Both pharmacological and nutrition-induced intervention trials on patients with an increased triglyceride level are above all time consuming, in order to detect changes of the metabolism, and require a high degree of discipline and motivation of the test persons or patients taking part in the studies. In part, these disadvantages can be lessened or eliminated by animal experiments, under the precondition that equivalent animal models are available. […] The specific properties of WOK.W rats are described, e.g., in: • P. Kovacs et al., Ann. N.Y. Acad. Sci., 1997, 827, 94-99; • P. Kovacs et al., Biochem. Biophsy. Res. Commun., 2000, 660-665; • J. van den Brandt et al., Int. J. Obesity, 2000, 24, 1618-1622; • J. van den Brandt et al., Metabolism 49, 2000, 1140-1144. […]
(§2) Body weight, body length (for the calculation of the mody mass index, BMI), plasma glucose, and serum triglycerides were recorded every 2 weeks. […]
(§3) Plasma glucose was measured enzymatically using a glucose analyzer. Lipid metabolism parameters were determined enzymatically with an automated analyzer for clinical chemistry, with kits (Boehringer Mannheim: triglycerides with TG GPO-PAP), according to the supplied instruction manuals. […]
(§4) The results are represented as mean values ±SEM and the statistical significance was calculated using Student's t-test.

WOK.W rat [2] = assay: Feeding trial in male WOK.W rats: serum triglycerides; conditions: 16 weeks old, after 12 weeks supplementation via drinking water, mean ± SEM, pathological threshold >2.3 mmol/l, a: P < 0.01
Excerpt: as §1, §2, §3, §4

WOK.W rat [3] = assay: Feeding trial in male WOK.W rats: body mass, BMI, pararenal adipose tissue; conditions: 16 weeks old, after 12 weeks supplementation via drinking water, mean ± SEM
Excerpt: Both pharmacological and nutrition-induced intervention trials on patients with an increased triglyceride level are above all time consuming, in order to detect changes of the metabolism, and require a high degree of discipline and motivation of the test persons or patients taking part in the studies. In part, these disadvantages can be lessened or eliminated by animal experiments, under the precondition that equivalent animal models are available. […] The specific properties of WOK.W rats are described, e.g., in: • P. Kovacs et al., Ann. N.Y. Acad. Sci., 1997, 827, 94-99; • P. Kovacs et al., Biochem. Biophsy. Res. Commun., 2000, 660-665; • J. van den Brandt et al., Int. J. Obesity, 2000, 24, 1618-1622; • J. van den Brandt et al., Metabolism 49, 2000, 1140-1144.
31 male WOK.W rats (from 8 litters) were divided, at an age of 4 weeks, into 4 groups, such that one sibling was represented in each group. Group 1 (n=8 animals) was fed and watered ad libitum and served as an untreated control group. Group 2 (n=7 animals) received drinking water to which had been added whey permeate (25 g sweet whey permeate/1000 ml drinking water), a daily water requirement of 20 ml on average being assumed as the basis of the calculation. Group 3 (n=8 animals) received drinking water to which had been added calcium L-lactate (5,6 g calcium L-lactate/1000 ml drinking water), and group 4 (n=8 animals) received whey permeate and calcium L-lactate in identical concentrations. The treatment trial began at an age of 4 weeks, i.e. before the development of the most important symptoms of the metabolic syndrome, and continued for 12 weeks, until an age of 16 weeks.
as §2, §4

Q: `C[C@H](O)C(=O)[O-].C[C@H](O)C(=O)[O-].[Ca+2]` [Calcium lactate, calcium L-lactate] was tested. Which Blood sugar (WOK.W rat [1]) did it give?
A: Its Blood sugar is 6.10 ± 0.21 mmol/L.

Q: What about the Triglyceride (WOK.W rat [2]) of the same compound?
A: Its Triglyceride is 3.88 ± 0.22 mmol/L.

Q: And the BMI (WOK.W rat [3])?
A: The BMI was 0.77 ± 0.01 g/cm^2.

Q: What about the Body mass (WOK.W rat [3]) of the same compound?
A: The Body mass was 394.3 ± 10.6 G.

Q: What about the Adipose tissue (WOK.W rat [3]; pararenal adipose tissue) of the same compound?
A: Its Adipose tissue is 10.01 ± 0.71 G.
